In this experiment the target is T1, human kinase Mps-1 (Homo sapiens, UniProt P33981).
T1 construct: N-terminally GST-tagged human full length recombinant Mps-1 kinase; purchased Invitrogen, Karslruhe, Germany PV4071
T1 sequence (P33981 1-857): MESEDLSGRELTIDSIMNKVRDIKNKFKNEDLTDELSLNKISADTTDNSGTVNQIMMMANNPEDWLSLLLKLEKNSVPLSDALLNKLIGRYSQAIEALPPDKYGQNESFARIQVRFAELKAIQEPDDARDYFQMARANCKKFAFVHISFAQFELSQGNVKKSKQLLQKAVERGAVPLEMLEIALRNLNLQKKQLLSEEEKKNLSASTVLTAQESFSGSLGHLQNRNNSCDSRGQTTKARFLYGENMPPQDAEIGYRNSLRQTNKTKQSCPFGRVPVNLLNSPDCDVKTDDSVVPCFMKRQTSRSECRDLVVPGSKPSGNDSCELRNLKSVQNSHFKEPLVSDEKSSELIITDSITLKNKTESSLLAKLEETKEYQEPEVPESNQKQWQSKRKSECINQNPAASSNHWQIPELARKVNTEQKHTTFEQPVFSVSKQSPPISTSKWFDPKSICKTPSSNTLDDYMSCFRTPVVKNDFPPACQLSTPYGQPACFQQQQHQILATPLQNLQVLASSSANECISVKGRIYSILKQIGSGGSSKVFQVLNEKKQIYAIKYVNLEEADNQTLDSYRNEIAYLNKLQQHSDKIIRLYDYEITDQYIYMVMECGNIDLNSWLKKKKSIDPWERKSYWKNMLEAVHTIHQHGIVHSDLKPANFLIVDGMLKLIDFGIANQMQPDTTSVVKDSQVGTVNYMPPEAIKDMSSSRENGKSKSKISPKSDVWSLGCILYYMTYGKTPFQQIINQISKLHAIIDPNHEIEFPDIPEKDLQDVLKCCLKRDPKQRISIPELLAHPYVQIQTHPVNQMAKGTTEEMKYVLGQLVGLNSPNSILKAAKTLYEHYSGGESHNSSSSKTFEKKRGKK
The experiment in a line: Mps-1 kinase assay (HTRF). It counts as biochemical. To be noted: lowATP; mean; read-out: Mps1 lowATP mean IC50. How it is done:
The human kinase Mps-1 phosphorylates a biotinylated substrate peptide. Detection of the phosphorylated product is achieved by homogenous time-resolved fluorescence resonance energy transfer (HTRF) from Europium-labelled anti-phospho-Serine/Threonine antibody as donor to streptavidin labelled with cross-linked allophycocyanin (SA-XLent) as acceptor. Compounds are tested for their inhibition of the kinase activity.
N-terminally GST-tagged human full length recombinant Mps-1 kinase (purchased from Invitrogen, Karslruhe, Germany, cat. no PV4071) was used. As substrate for the kinase reaction a biotinylated peptide of the amino-acid sequence PWDPDDADITEILG (C-terminus in amide form, purchased from Biosynthan GmbH, Berlin) was used.
For the assay 50 nl of a 100-fold concentrated solution of the test compound in DMSO was pipetted into a black low volume 384 well microtiter plate (Greiner Bio-One, Frickenhausen, Germany), 2 μl of a solution of Mps-1 in assay buffer [0.1 mM sodium-ortho-vanadate, 10 mM MgCl2, 2 mM DTT, 25 mM Hepes pH 7.7, 0.05% BSA, 0.001% Pluronic F-127] were added and the mixture was incubated for 15 min at 22° C. to allow pre-binding of the test compounds to Mps-1 before the start of the kinase reaction. Then the kinase reaction was started by the addition of 3 μl of a solution of 16.7 μM ATP and 1.67 μM peptide in assay buffer and the resulting mixture was incubated for a reaction time of 60 min at 22° C. The concentration of Mps-1 in the assay was adjusted to the activity of the enzyme lot and was chosen appropriate to have the assay in the linear range, typical enzyme concentrations were in the range of about 1 nM (final conc. in the 5 μl assay volume). The reaction was stopped by the addition of 3 μl of a solution of HTRF detection reagents (100 mM Hepes pH 7.4, 0.1% BSA, 40 mM EDTA, 140 nM Streptavidin-XLent [#61GSTXLB, Fa. Cis Biointernational, Marcoule, France], 1.5 nM anti-phospho(Ser/Thr)-Europium-antibody [#AD0180, PerkinElmer LAS, Rodgau-Jügesheim, Germany].
The resulting mixture was incubated 1 h at 22° C. to allow the binding of the phosphorylated peptide to the anti-phospho(Ser/Thr)-Europium-antibody. Subsequently the amount of phosphorylated substrate was evaluated by measurement of the resonance energy transfer from the Europium-labelled anti-phospho(Ser/Thr) antibody to the Streptavidin-XLent. Therefore, the fluorescence emissions at 620 nm and 665 nm after excitation at 350 nm was measured in a HTRF reader, e.g. a Rubystar (BMG Labtechnologies, Offenburg, Germany) or a Viewlux (PerkinElmer LAS, Rodgau-Jügesheim, Germany). The ratio of the emissions at 665 nm and at […] was taken as the measure for the amount of phosphorylated substrate. The data were normalised (enzyme reaction without inhibitor=0% inhibition, all other assay components but no enzyme=100% inhibition).
`CC(C)CNc1nc2ccccc2n2c(-c3ccccc3F)cnc12` [Example 1-26, 1-(2-fluorophenyl)-N-(2-methylpropyl)imidazo[1,2-a]quinoxalin-4-amine]: the IC50 came to 9.14 µM.

Consider `CC(C)CNc1nc2ccccc2n2c(-c3ccc(CO)cc3)cnc12` [Example 1-27, (4-{4-[(2-methylpropyl)amino]imidazo[1,2-a]quinoxalin-1-yl}phenyl)methanol], for which the IC50 was found to be 1.68 µM.

Regarding `CC(C)CNc1nc2ccccc2n2c(-c3ccc4c(c3)OCO4)cnc12` [Example 1-28, 1-(1,3-benzodioxol-5-yl)-N-(2-methylpropyl)imidazo[1,2-a]quinoxalin-4-amine], the IC50 came to 9.9 µM.

For `CCOc1ccc(-c2cnc3c(NCC(C)C)nc4ccccc4n23)cc1` [Example 1-29, 1-(4-ethoxyphenyl)-N-(2-methylpropyl)imidazo[1,2-a]quinoxalin-4-amine], the IC50 was 4.98 µM.

Turning to `COc1ccc(-c2cnc3c(NCC(C)C)nc4ccccc4n23)c(C)c1` [Example 1-30, 1-(4-methoxy-2-methylphenyl)-N-(2-methylpropyl)imidazo[1,2-a]quinoxalin-4-amine], the IC50 is 15.3 µM.

Consider `CC(C)CNc1nc2ccccc2n2c(-c3cccc(F)c3F)cnc12` [Example 1-31, 1-(2,3-difluorophenyl)-N-(2-methylpropyl)imidazo[1,2-a]quinoxalin-4-amine], for which the IC50 amounted to 16.3 µM.

Consider `CC(C)CNc1nc2ccccc2n2c(-c3cccnc3)cnc12` [Example 1-32, N-(2-methylpropyl)-1-(pyridin-3-yl)imidazo[1,2-a]quinoxalin-4-amine], for which the IC50 was determined as 18.9 µM.

For the molecule `COc1ccc(-c2cnc3c(NCC(C)C)nc4ccccc4n23)cc1F` [Example 1-33, 1-(3-fluoro-4-methoxyphenyl)-N-(2-methylpropyl)imidazo[1,2-a]quinoxalin-4-amine], the IC50 was 1.76 µM.

As to `CC(C)CNc1nc2ccccc2n2c(-c3ccncc3)cnc12` [Example 1-34, N-(2-methylpropyl)-1-(pyridin-4-yl)imidazo[1,2-a]quinoxalin-4-amine], the IC50 amounted to 11.9 µM.

Consider `CC(C)CNc1nc2ccccc2n2c(-c3ccccc3O)cnc12` [Example 1-35, 2-{4-[(2-methylpropyl)amino]imidazo[1,2-a]quinoxalin-1-yl}phenol], for which the IC50 is 4.62 µM.

Turning to `CC(C)CNc1nc2ccccc2n2c(-c3cccc(O)c3)cnc12` [Example 1-36, 3-{4-[(2-methylpropyl)amino]imidazo[1,2-a]quinoxalin-1-yl}phenol], the IC50 was 18.6 µM.

As for `CC(C)CNc1nc2ccccc2n2c(-c3ccc(O)cc3)cnc12` [Example 1-37, 4-{4-[(2-methylpropyl)amino]imidazo[1,2-a]quinoxalin-1-yl}phenol], the IC50 came out at 0.301 µM.

For `Cc1ccc(-c2cnc3c(NCC(C)C)nc4ccccc4n23)s1` [Example 1-38, N-(2-methylpropyl)-1-(5-methylthiophen-2-yl)imidazo[1,2-a]quinoxalin-4-amine], the IC50 worked out at 6.05 µM.

For `CC(C)CNc1nc2ccccc2n2c(-c3ccc4[nH]ccc4c3)cnc12` [Example 1-39, 1-(1H-indol-5-yl)-N-(2-methylpropyl)imidazo[1,2-a]quinoxalin-4-amine], the IC50 was 8.86 µM.

In the case of `CC(C)CNc1nc2ccccc2n2c(-c3ccc(S(C)(=O)=O)cc3)cnc12` [Example 1-40, N-(2-methylpropyl)-1-[4-(methylsulfonyl)phenyl]imidazo[1,2-a]quinoxalin-4-amine], the IC50 came out at 17.4 µM.

On to `CC(C)CNc1nc2ccccc2n2c(-c3cc(F)ccc3F)cnc12` [Example 1-41, 1-(2,5-difluorophenyl)-N-(2-methylpropyl)imidazo[1,2-a]quinoxalin-4-amine], for which the IC50 was found to be 10.6 µM.

For `Cc1ccc(-c2cnc3c(NCC(C)C)nc4ccccc4n23)c(F)c1` [Example 1-42, 1-(2-fluoro-4-methylphenyl)-N-(2-methylpropyl)imidazo[1,2-a]quinoxalin-4-amine], the IC50 amounted to 5.91 µM.

Regarding `CC(C)CNc1nc2ccccc2n2c(-c3cc[nH]n3)cnc12` [Example 1-43, N-(2-methylpropyl)-1-(1H-pyrazol-3-yl)imidazo[1,2-a]quinoxalin-4-amine], the IC50 stood at 10.4 µM.

Turning to `CC(=O)NCc1cccc(-c2cnc3c(NCC(C)C)nc4ccccc4n23)c1` [Example 1-44, N-(3-{4-[(2-methylpropyl)amino]imidazo[1,2-a]quinoxalin-1-yl}benzyl)acetamide], the IC50 was 11.5 µM.

As to `Cc1ccc(-c2cnc3c(NCC(C)C)nc4ccccc4n23)cn1` [Example 1-45, N-(2-methylpropyl)-1-(6-methylpyridin-3-yl)imidazo[1,2-a]quinoxalin-4-amine], the IC50 came out at 8.19 µM.

With `CNC(=O)c1ccc(-c2cnc3c(NCC(C)C)nc4ccccc4n23)cc1Cl` [Example 1-46, 2-chloro-N-methyl-4-{4-[(2-methylpropyl)amino]imidazo[1,2-a]quinoxalin-1-yl}benzamide], the IC50 stood at 2.42 µM.

Consider `CC(C)CNc1nc2ccccc2n2c(-c3ccc(C(=O)NC4CC4)c(Cl)c3)cnc12` [Example 1-47, 2-chloro-N-cyclopropyl-4-{4-[(2-methylpropyl)amino]imidazo[1,2-a]quinoxalin-1-yl}benzamide], for which the IC50 was 0.367 µM.

Consider `CC(C)CNc1nc2ccccc2n2c(-c3ccc4[nH]ncc4c3)cnc12` [Example 1-48, 1-(1H-indazol-5-yl)-N-(2-methylpropyl)imidazo[1,2-a]quinoxalin-4-amine], for which the IC50 came to 4.53 µM.

As for `CC(C)CNc1nc2ccccc2n2c(-c3ccc4cn[nH]c4c3)cnc12` [Example 1-49, 1-(1H-indazol-6-yl)-N-(2-methylpropyl)imidazo[1,2-a]quinoxalin-4-amine], the IC50 is 6.46 µM.

On to `CNC(=O)c1ccc(-c2cnc3c(NCC(C)C)nc4ccccc4n23)cn1` [Example 1-50, N-methyl-5-{4-[(2-methylpropyl)amino]imidazo[1,2-a]quinoxalin-1-yl}pyridine-2-carboxamide], for which the IC50 came to 0.416 µM.

As to `O=C(NC1CC1)c1ccc(-c2cnc3c(NCCO)nc4ccccc4n23)cc1` [Example 2-1, N-cyclopropyl-4-[4-(2-hydroxy-ethylamino)-imidazo[1,2-a]quinoxalin-1-yl]-benzamide], the IC50 is 0.113 µM.

Regarding `O=C(NC1CC1)c1ccc(-c2cnc3c(NCCCN4CCOCC4)nc4ccccc4n23)cc1` [Example 2-2, N-cyclopropyl-4-(4-{[3-(morpholin-4-yl)propyl]amino}imidazo[1,2-a]quinoxalin-1-yl)benzamide], the IC50 came out at 0.396 µM.

`CC(C)CCNc1nc2ccccc2n2c(-c3ccc(C(=O)NC4CC4)cc3)cnc12` [Example 2-3, N-cyclopropyl-4-{4-[(3-methylbutyl)amino]imidazo[1,2-a]quinoxalin-1-yl}benzamide]: the IC50 worked out at 0.034 µM.

(Values after US8729082B2, “Substituted imidazoquinoxalines” (Bayer Intellectual Property GmbH, priority 2009, dated 2014).)
